Reference: patent US11534457B2, “Use of dextran sulfate” (priority 2017, dated 2022)

Tested on: severe traumatic brain injury (sTBI)
Test: sTBI in rats, brain gene expression arrays and pathway analysis (Example 9)
Format: in vivo, Male Wistar rats
Set-up: key to z score, canonical pathway Dendritic Cell Maturation / z score, canonical pathway Adrenomedullin Signaling pathway / z score, canonical pathway Endothelin-1 Signaling / effect on canonical pathway Adrenomedullin Signaling pathway / effect on canonical pathway Endothelin-1 Signaling / effect on canonical pathway Dendritic Cell Maturation / Ingenuity canonical pathway Adrenomedullin signaling pathway, z score / Ingenuity canonical pathway FLT3 Signaling in Hematopoietic Progenitor Cells, z score / Ingenuity canonical pathway Opioid Signaling Pathway, z score / Ingenuity canonical pathway VDR/RXR Activation, z score / Ingenuity canonical pathway Neuropathic Pain Signaling In Dorsal Horn Neurons, z score / Ingenuity canonical pathway STAT3 Pathway, z score / Ingenuity canonical pathway IL-1 Signaling, z score / Ingenuity canonical pathway IL-6 Signaling, z score / Ingenuity canonical pathway NF-κB Signaling, z score / Ingenuity canonical pathway Role of NFAT in Cardiac Hypertrophy, z score / Ingenuity canonical pathway PPARα/RXRα Activation, z score: *: ambiguous effect
Settings: for effect of TBI on molecular processes and diseases: given 30 minutes after injury; for TBI-induced alterations in neurodegeneration and scarring-related canonical pathways: given within 30 minutes of TBI
Description: The experimental protocol used in this study was approved by the Ethical Committee of the Catholic University of Rome, according to international standards and guidelines for animal care. Male Wistar rats of 300-350 g body weight were fed with standard laboratory diet and water ad libitum in a controlled environment. As the anesthetic mixture, the animals received 35 mg/kg b.w. ketamine and 0.25 mg/kg body weight midazolam by i.p. injection. Severe traumatic brain injury (sTBI) was induced by dropping a 450 g weight from 2 m height on to the rat head that had been protected by a metal disk previously fixed on the skull, according to the “weight drop” impact acceleration model (Marmarou et al., A new model of diffuse brain injury in rats. Part I: Pathophysiology and biomechanics. J Neurosurg. 1994; 80: 291-300). […] At the end of each period of treatment, rats were anesthetized again and then immediately sacrificed.
LMW-DS (Tikomed AB) was provided at a stock concentration of 20 mg/ml and was kept in a temperature-monitored refrigerator at 4° C. LMW-DS aliquots were diluted to the appropriate dosing concentration in sterile saline prior to delivery of a single subcutaneous injection.
Three doses of LMW-DS were administered subcutaneously 30 minutes post-TBI. The animals were sacrificed at 2 days post-TBI. The animals were divided into the following subgroups:
Three doses of LMW-DS were administered subcutaneously 30 minutes post-TBI. The animals were sacrificed at 7 days post-TBI. The animals were divided into the following subgroups:
An in vivo craniectomy was performed on all animals during anesthesia. After carefully removing the rat's skull, the brain was exposed and removed with a surgical spatula and quickly dropped in RNALater and preserved at 4° C. for further processing.
RNA extraction and array processing was carried out by SourceBioscience. The arrays used were the Agilent Rat expression arrays.
Statistical analysis was carried out using the Metaboanalyst software package. Gene expression changes of 10% with a p<0.05 were regarded as significant.
Pathway analysis of the differentially regulated genes was carried out using the Ingenuity pathway analysis package. The analysis was performed with special reference to pathways and molecular processes and diseases associated with neurodegenerative disease, including dementia, Alzheimer's disease, ALS, TBI and stroke, and with scarring and fibrosis, including glaucoma and normal pressure hydrocephalus (NPH) after subarachnoid haemorrhage.

[1] = TBI + 15 mg/kg repeat dose LMW-DS, after 7 days, TBI: Inhibited
[2] = TBI + 15 mg/kg repeated dose LMW-DS, 7 days after TBI
[3] = TBI + 15 mg/kg repeated dose LMW-DS, 7 days after TBI, relative to control

low molecular weight dextran sulfate [LMW-DS]
Diseases or functions annotation: Differentiation of bone cells [1]: Inhibited
Diseases or functions annotation: Differentiation of connective tissue cells [1]: Inhibited
Diseases or functions annotation: Digestive system cancer [1]: Inhibited
Diseases or functions annotation: Epithelial neoplasm [1]: Inhibited
Diseases or functions annotation: Formation of cellular protrusions [1]: Activated
Diseases or functions annotation: Formation of intercellular junctions [1]: Activated
Diseases or functions annotation: Learning [1]: Activated
Diseases or functions annotation: Microtubule dynamics [1]: Activated
Diseases or functions annotation: Migration of cells [1]: Activated
Diseases or functions annotation: Morphogenesis of neurons [1]: Activated
Diseases or functions annotation: Neurotransmission [1]: Activated
Diseases or functions annotation: Non-hematological solid tumor [1]: Inhibited
Diseases or functions annotation: Non-melanoma solid tumor [1]: Inhibited
Diseases or functions annotation: Nonhematologic malignant neoplasm [1]: Inhibited
Diseases or functions annotation: Organization of cytoplasm [1]: Activated
Diseases or functions annotation: Organization of cytoskeleton [1]: Activated
Diseases or functions annotation: Quantity of Ca^2+ [1]: Activated
Diseases or functions annotation: Quantity of carbohydrate [1]: Inhibited
Diseases or functions annotation: Quantity of cells [1]: Activated
Diseases or functions annotation: Size of body [1]: Activated
Diseases or functions annotation: Transport of ion [1]: Activated
Diseases or functions annotation: Transport of metal [1]: Activated
Diseases or functions annotation: Transport of molecule [1]: Activated
Diseases or functions annotation: Tumorigenesis of tissue [1]: Inhibited
Ingenuity canonical pathway: 3-phosphoinositide Degradation [2]: Activated
Ingenuity canonical pathway: Acute Phase Response Signaling [2]: Inhibited
Ingenuity canonical pathway: Adrenomedullin signaling pathway [2]: Inhibited
Ingenuity canonical pathway: B Cell Receptor Signaling [2]: Inhibited
Ingenuity canonical pathway: Ephrin Receptor Signaling [2]: Activated
Ingenuity canonical pathway: Fc Epsilon RI Signaling [2]: Inhibited
Ingenuity canonical pathway: G Beta Gamma Signaling [2]: Activated
Ingenuity canonical pathway: NF-κB Signaling [2]: Activated
Ingenuity canonical pathway: Opioid Signaling Pathway [2]: Activated
Ingenuity canonical pathway: Role of NFAT in Cardiac Hypertrophy [2]: Activated
Ingenuity canonical pathway: Role of NFAT in Regulation of the Immune Response [2]: Activated
Ingenuity canonical pathway: Signaling by Rho Family GTPases [2]: Activated
Ingenuity canonical pathway: Superpathway of Inositol Phosphate Compounds [2]: Activated
Ingenuity canonical pathway: Synaptic Long Term Depression [2]: Activated
z score: Abdominal cancer [2]: −2.015
z score: Abdominal neoplasm [2]: −1.116
z score: Adenocarcinoma [2]: −0.944
z score: Branching of cells [2]: 0.397
z score: Carcinoma [2]: −0.358
z score: Cell movement [2]: 0.154
z score: Cell-cell contact [2]: 1.504
z score: Concentration of hormone [2]: 0.825
z score: Concentration of lipid [2]: −0.204
z score: Dendritic growth/branching [2]: −0.169
z score: Development of connective tissue cells [2]: −0.005
z score: Development of gap junctions [2]: 0.849
z score: Development of neurons [2]: 0.688
z score: Developmental process of synapse [2]: 0.849
z score: Differentiation of bone cells [2]: −0.237
z score: Differentiation of connective tissue cells [2]: −0.011
z score: Digestive organ tumor [2]: −1.481
z score: Digestive system cancer [2]: −1.513
z score: Epithelial neoplasm [2]: −0.999
z score: Extracranial solid tumor [2]: 0.529
z score: Formation of cellular protrusions [2]: 1.183
z score: Formation of intercellular junctions [2]: 0.391
z score: Gastrointestinal tumor [2]: −1.284
z score: Hematologic cancer [2]: −2.216
z score: Hematopoietic neoplasm [2]: −2.027
z score: Learning [2]: 0.469
z score: Microtubule dynamics [2]: 1.962
z score: Migration of cells [2]: 0.271
z score: Morphogenesis of neurons [2]: 0.205
z score: Neurotransmission [2]: 1.214
z score: Non-hematologic malignant neoplasm [2]: −0.223
z score: Non-hematological solid tumor [2]: −0.913
z score: Non-melanoma solid tumor [2]: −1.478
z score: Obesity [2]: 2.18
z score: Organization of cytoplasm [2]: 1.922
z score: Organization of cytoskeleton [2]: 1.922
z score: Quantity of carbohydrate [2]: −0.017
z score: Quantity of cells [2]: 0.493
z score: Seizure disorder [2]: 1.376
z score: Size of body [2]: 0.67
z score: Skin lesion [2]: 0.532
z score: Transport of ion [2]: 1.109
z score: Transport of metal [2]: 1
z score: Transport of molecule [2]: 1.143
z score: Tumorigenesis of tissue [2]: −1.333
Ingenuity canonical pathway 3-phosphoinositide Degradation, z score [3]: 2
Ingenuity canonical pathway Acute Phase Response Signaling, z score [3]: −0.447
Ingenuity canonical pathway Adrenomedullin signaling pathway, z score [3]: −0.378
Ingenuity canonical pathway B Cell Receptor Signaling, z score [3]: −0.447
Ingenuity canonical pathway Ephrin Receptor Signaling, z score [3]: 2.236
Ingenuity canonical pathway FLT3 Signaling in Hematopoietic Progenitor Cells, z score [3]: *
Ingenuity canonical pathway Fc Epsilon RI Signaling, z score [3]: −1
Ingenuity canonical pathway G Beta Gamma Signaling, z score [3]: 2.236
Ingenuity canonical pathway IL-1 Signaling, z score [3]: *
Ingenuity canonical pathway IL-6 Signaling, z score [3]: *
Ingenuity canonical pathway NF-κB Signaling, z score [3]: 0.447
Ingenuity canonical pathway Neuropathic Pain Signaling In Dorsal Horn Neurons, z score [3]: *
Ingenuity canonical pathway Opioid Signaling Pathway, z score [3]: 0.816
Ingenuity canonical pathway Role of NFAT in Cardiac Hypertrophy, z score [3]: 0.447
Ingenuity canonical pathway Role of NFAT in Regulation of the Immune Response, z score [3]: 2.236
Ingenuity canonical pathway Signaling by Rho Family GTPases, z score [3]: 1
Ingenuity canonical pathway Superpathway of Inositol Phosphate Compounds, z score [3]: 2
Ingenuity canonical pathway Synaptic Long Term Depression, z score [3]: 1.342
effect of TBI on molecular processes and diseases (2 days): mostly abolished
effect of TBI on molecular processes and diseases (7 days): mostly abolished
TBI-induced alterations in neurodegeneration and scarring-related canonical pathways (2 days): counteracted
TBI-induced alterations in neurodegeneration and scarring-related canonical pathways (7 days): counteracted
